# Assays:
# [1] = test system: E. coli des Stammes ATCC 11 775; assay: ED50 in intraperitoneal E. coli infection of mice; format: in vivo, Albino-Mäusen vom Stamm NMRI; settings: Escherichia coli, ATCC11, sc; intraperitoneal E. coli ATCC 11 775 infection, NMRI albino mice, subcutaneous application; treated three times on day 1 (first 1 h after infection), twice daily on 2 further days
# Method: Dabei wurde die ED50 der oben genannten Verbindungen 1 und 2 bei einer intraperitonealen E. coli-Infektion an Albino-Mäusen vom Stamm NMRI bestimmt. Am ersten Tag wurde dreimal behandelt (erstmals 1 h nach Infektion) und 2 weitere Tage zweimalig.
# [2] = test system: Ser. marcescens ATCC 13880; assay: MIC (MHK), agar diffusion and serial dilution test; format: cell-based; settings: Serratia marcescens, ATCC13880, read-out: MHK-Werte
# Description: (§1) Die Untersuchungen auf die antibakterielle Wirksamkeit in vitro wurde nach dem Agar-Diffusionstest und nach dem Reihenverdünnungstest in Anlehnung an die von P. Klein in "Bakteriologische Grundlagen der Chemotherapeutischen Laboratoriumspraxis", Springerverlag 1957, Seiten 53 bis 76 und 87 bis 109, beschriebenen Methodik durchgeführt.
# (§2) Für D-α-[3-(3,4-Dihydro-3-methyl-2-hydroxy-4-oxo-5- pyrimidyl)-ureido/-p-hydroxybenzyl-penicillin-Natrium (Verbindung 1) und für Natrium-7-{D-α-[3-(3,4-Dihydro-2-hydroxy-3-methyl-4-oxo-5-pyrimidyl)-ureido]-p-hydroxyphenylacetamido}-3-[(1-methyl-tetrazol-5-yl)-thiomethyl]-ceph-3-em-4-carboxylat (Verbindung 2) wurden folgende MHK-Werte gegen einige gramnegative Keime gemessen: […]
# Klebs. pneum. 272 = assay: MIC (MHK), agar diffusion and serial dilution test; format: cell-based; settings: read-out: MHK-Werte
# Description: as §1, §2
# E.coli ATCC 11775 = assay: MIC (MHK), agar diffusion and serial dilution test; format: cell-based; settings: Escherichia coli, ATCC11775, read-out: MHK-Werte
# Description: as §1, §2
# Klebs. pneum. ATCC 10031 = assay: MIC (MHK), agar diffusion and serial dilution test; format: cell-based; settings: read-out: MHK-Werte
# Description: as §1, §2
# Proteus Vulgaris = assay: MIC (MHK), agar diffusion and serial dilution test; format: cell-based; settings: read-out: MHK-Werte
# Description: as §1, §2
# Proteus mirab. = assay: MIC (MHK), agar diffusion and serial dilution test; format: cell-based; settings: read-out: MHK-Werte
# Description: as §1, §2
# Pseud.aerug Hbg. = assay: MIC (MHK), agar diffusion and serial dilution test; format: cell-based; settings: read-out: MHK-Werte
# Description: as §1, §2
# E.coli 12593/ 74 = assay: MIC (MHK), agar diffusion and serial dilution test; format: cell-based; settings: Escherichia coli, read-out: MHK-Werte
# Description: as §1, §2
# Pseud.aerug. ATCC 10145 = assay: MIC (MHK), agar diffusion and serial dilution test; format: cell-based; settings: read-out: MHK-Werte
# Description: as §1, §2
# E.coli ATCC 9637 = assay: MIC (MHK), agar diffusion and serial dilution test; format: cell-based; settings: Escherichia coli, ATCC9637, read-out: MHK-Werte
# Description: as §1, §2
MIC [2] [µg/mL],MIC (Klebs. pneum. 272) [µg/mL],MIC (E.coli ATCC 11775) [µg/mL],MIC (Klebs. pneum. ATCC 10031) [µg/mL],MIC (Proteus Vulgaris) [µg/mL],MIC (Proteus mirab.) [µg/mL],MIC (Pseud.aerug Hbg.) [µg/mL],MIC (E.coli 12593/ 74) [µg/mL],MIC (Pseud.aerug. ATCC 10145) [µg/mL],MIC (E.coli ATCC 9637) [µg/mL],SMILES,ED50 [1] [mg/kg]
–,–,–,–,–,–,–,–,–,–,"Cn1nnnc1SCC1=C(C(=O)[O-])N2C(=O)C(NC(=O)[C@H](NC(=O)Nc3cnc(O)n(C)c3=O)c3ccc(O)cc3)[C@H]2SC1.[Na+] (stereo partly drawn) [Verbindung 2, Natrium-7-{D-α-[3-(3,4-Dihydro-2-hydroxy-3-methyl-4-oxo-5-pyrimidyl)-ureido]-p-hydroxyphenylacetamido}-3-[(1-methyl-tetrazol-5-yl)-thiomethyl]-ceph-3-em-4-carboxylat]",3.3
10,2.5,1.25,1.25,10,1.25,20,5,20 to 40,1.25,Cn1nnnc1SCC1=C(C(=O)O)N2C(=O)[C@@H](NC(=O)[C@H](NC(=O)Nc3cnc(O)n(C)c3=O)c3ccc(O)cc3)[C@H]2SC1 [Beispiel 2],–
2.5,40 to 80,2.5,40 to 80,10,1.25,5,> 80,5,2.5,Cn1c(O)ncc(NC(=O)N[C@@H](C(=O)N[C@@H]2C(=O)N3[C@@H]2SC(C)(C)[C@@H]3C(=O)O)c2ccc(O)cc2)c1=O [Verbindung 1],7
